In patent US20240342292A1, “Compounds for the Degradation of EGFR Kinase” (BeiGene Switzerland GmbH, priority 2021, published 2024):

Tests used:
[1] = system: Del19/T790M/C797S EGFR; assay: EGFR degradation HTRF assay in H1975-clone #28 (DTC) cells; format: cell-based; conditions: H1975 # 28 DTC (Del19/T790M/C797S), 16h treatment; for DC50: HTRF; for Dmax (%): maximum percentage of degradation
Summary of the method: (§1)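 Remaining EGFR protein was measured by HTRF (337 nm excitation, 665/620 nm emission) in lysates after overnight antibody incubation. Cells had been exposed for 16 h to an 8-point, 5-fold series starting at 10 uM, and DC50 values were fitted with a Hill equation.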

[2] = molecular target: T1, L858R/T790M/C797S EGFR (Homo sapiens, UniProt P00533, C797S/L858R/T790M); assay: EGFR degradation HTRF assay in H1975-clone #25 (LTC) cells; format: cell-based; conditions: 16h treatment; for DC50: H1975 # 25-LTC (L858R/T790M/C797S), HTRF; for Dmax: NCI-H1975, H1975 # 25-LTC (L858R/T790M/C797S), maximum percentage of degradation
T1 construct: expressed in transfected cells; host or cells: H1975 clone #25 (lentiviral over-expression, endogenous EGFR knocked out by sgRNA)
T1 sequence (P00533 25-1210 T790M/C797S/L858R): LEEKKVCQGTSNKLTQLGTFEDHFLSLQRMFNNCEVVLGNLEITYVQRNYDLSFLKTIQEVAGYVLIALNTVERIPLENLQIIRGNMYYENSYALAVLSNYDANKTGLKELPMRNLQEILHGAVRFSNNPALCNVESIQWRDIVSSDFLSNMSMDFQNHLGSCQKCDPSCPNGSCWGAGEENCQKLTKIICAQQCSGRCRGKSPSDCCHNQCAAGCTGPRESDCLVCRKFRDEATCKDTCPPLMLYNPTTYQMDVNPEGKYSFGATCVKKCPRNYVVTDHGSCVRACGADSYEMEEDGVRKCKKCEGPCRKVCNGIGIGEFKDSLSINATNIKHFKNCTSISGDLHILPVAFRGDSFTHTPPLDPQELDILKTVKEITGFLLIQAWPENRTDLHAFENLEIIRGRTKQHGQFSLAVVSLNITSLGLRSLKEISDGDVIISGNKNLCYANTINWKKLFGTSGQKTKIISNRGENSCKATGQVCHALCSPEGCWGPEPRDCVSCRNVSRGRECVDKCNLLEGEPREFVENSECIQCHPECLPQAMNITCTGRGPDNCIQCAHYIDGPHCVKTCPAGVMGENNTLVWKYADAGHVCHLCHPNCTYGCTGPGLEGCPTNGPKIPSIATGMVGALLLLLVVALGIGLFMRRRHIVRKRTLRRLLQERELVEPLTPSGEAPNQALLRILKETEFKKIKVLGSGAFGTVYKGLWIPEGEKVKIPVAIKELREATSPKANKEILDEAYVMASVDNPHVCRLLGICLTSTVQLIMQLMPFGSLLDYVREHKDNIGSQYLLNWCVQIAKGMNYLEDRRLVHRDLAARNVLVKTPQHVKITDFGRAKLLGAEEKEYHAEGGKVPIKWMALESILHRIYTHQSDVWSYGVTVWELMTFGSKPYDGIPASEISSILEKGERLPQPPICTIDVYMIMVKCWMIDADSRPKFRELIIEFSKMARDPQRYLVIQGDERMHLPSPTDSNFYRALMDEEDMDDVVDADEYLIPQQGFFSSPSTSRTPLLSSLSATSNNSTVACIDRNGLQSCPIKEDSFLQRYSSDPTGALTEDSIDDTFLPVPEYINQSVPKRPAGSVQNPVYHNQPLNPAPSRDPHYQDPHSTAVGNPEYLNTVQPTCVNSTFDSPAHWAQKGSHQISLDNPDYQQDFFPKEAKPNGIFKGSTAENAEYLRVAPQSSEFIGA
Summary of the method: as §1

DC50 [1] [nM]	DC50 [2] [nM]	Dmax [2] [%]	Compound	Dmax (%) [1] [%]
1.18	1.17	88.2	Cc1cc2cc(n1)-c1cnn(C)c1OCCC[C@@H](C)CN1/C(=N/C2=O)Nc2ccc(N3CCN(CC4CN(c5cc(F)c([C@H]6CCC(=O)NC6=O)c(F)c5)C4)CC3)cc21 [Example 321, (R)-3-(2,6-difluoro-4-(3-((4-((R,E)-1^1,2^6,7-trimethyl-3-oxo-5^2,5^3-dihydro-1^1H,5^1H-11-oxa-4-aza-5(2,1)-benzo[d]imidazola-2(2,4)-pyridina-1(4,5)-pyrazolacycloundecaphane-5^6-yl)piperazin-1-yl)methyl)azetidin-1-yl)phenyl)piperidine-2,6-dione]	73.52
0.934	1.21	86.8	Cc1cc2cc(n1)-c1cnn(C)c1OCCC[C@@H](C)CN1/C(=N/C2=O)Nc2ccc(N3CCN(CC4CCN(c5cc(F)c([C@H]6CCC(=O)NC6=O)c(F)c5)CC4)CC3)cc21 [Example 322, (R)-3-(2,6-difluoro-4-(4-((4-((R,E)-1^1,2^6,7-trimethyl-3-oxo-5^2,5^3-dihydro-1^1H,5^1H-11-oxa-4-aza-5(2, 1)-benzo[d]imidazola-2(2,4)-pyridina-1(4,5)-pyrazolacycloundecaphane-5^6-yl)piperazin-1-yl)methyl)piperidin-1-yl)phenyl)piperidine-2,6-dione]	74.99
1.03	1.03	63.9	Cc1cc2cc(n1)-c1cnn(C)c1OCCC[C@@H](C)CN1/C(=N/C2=O)Nc2ccc(C3CCN(CC4CCN(c5cc(F)c([C@H]6CCC(=O)NC6=O)c(F)c5)CC4)CC3)cc21 [Example 323, (R)-3-(2,6-difluoro-4-(4-((4-((R,E)-1^1,2^6,7-trimethyl-3-oxo-5^2,5^3-dihydro-1^1H,5^1H-11-oxa-4-aza-5(2,1)-benzo[d]imidazola-2(2,4)-pyridina-1(4,5)-pyrazolacycloundecaphane-5^6-yl)piperidin-1-yl)methyl)piperidin-1-yl)phenyl)piperidine-2,6-dione]	49.97
0.859	1.02	91.1	Cc1cc2cc(n1)-c1cnn(C)c1OCCC[C@@H](C)CN1/C(=N/C2=O)Nc2ccc(N3CCN(C4CCN(c5cc(F)c([C@H]6CCC(=O)NC6=O)c(F)c5)CC4)CC3)cc21 [Example 324, (R)-3-(2,6-difluoro-4-(4-(4-((R,E)-1^1,26,7-trimethyl-3-oxo-5^2,5^3-dihydro-1^1H,5^1H-11-oxa-4-aza-5(2, 1)-benzo[d]imidazola-2(2,4)-pyridina-1(4,5)-pyrazolacycloundecaphane-5^6-yl)piperazin-1-yl)piperidin-1-yl)phenyl)piperidine-2,6-dione]	78.7
1.71	1.88	88.9	Cc1cc2cc(n1)-c1cnn(C)c1OCCC[C@@H](C)CN1/C(=N/C2=O)Nc2ccc(N3CCN(C(=O)[C@@H]4CN(c5cc(F)c([C@H]6CCC(=O)NC6=O)c(F)c5)CC4(C)C)CC3)cc21 [Example 326, (R)-3-(4-((S)-3,3-dimethyl-4-(4-((R,E)-1^1,2^6,7-trimethyl-3-oxo-5^2,5′-dihydro-1^1H,5^1H-11-oxa-4-aza-5(2,1)-benzo[d]imidazola-2(2,4)-pyridina-1(4,5)-pyrazolacycloundecaphane-5^6-yl)piperazine-1-carbonyl)pyrrolidin-1-yl)-2,6-difluorophenyl)piperidine-2,6-dione]	81.61
1.09	3.17	83.7	Cc1cc2cc(n1)-c1cnn(C)c1OCCC[C@@H](C)CN1/C(=N/C2=O)Nc2ccc(C3CCN(C(=O)[C@H]4CN(c5cc(F)c([C@H]6CCC(=O)NC6=O)c(F)c5)CC4(C)C)CC3)cc21 [Example 327, (R)-3-(4-((R)-3,3-dimethyl-4-(4-((R,E)-1^1,2^6,7-trimethyl-3-oxo-5^2,53-dihydro-1^1H,5^1H-11-oxa-4-aza-5(2,1)-benzo[d]imidazola-2(2,4)-pyridina-1(4,5)-pyrazolacycloundecaphane-5^6-yl)piperidine-1-carbonyl)pyrrolidin-1-yl)-2,6-difluorophenyl)piperidine-2,6-dione]	74.51
2.19	2.97	78.7	Cc1cc2cc(n1)-c1cnn(C)c1OCCC[C@@H](C)CN1/C(=N/C2=O)Nc2cc(F)c(C3CCN(C(=O)[C@@H]4CCN(c5cc(F)c(C6CCC(=O)NC6=O)c(F)c5)C4)CC3)cc21 (stereo partly drawn) [Example 329, (R)-3-(2,6-difluoro-4-((R)-3-(4-((R,E)-5^5-fluoro-1^1,2^6,7-trimethyl-3-oxo-5^2,5^3-dihydro-1^1H,5^1H-11-oxa-4-aza-5(2,1)-benzo[d]imidazola-2(2,4)-pyridina-1(4,5)-pyrazolacycloundecaphane-5^6-yl)piperidine-1-carbonyl)pyrrolidin-1-yl)phenyl)piperidine-2,6-dione]	68.61
0.633	0.972	87.1	Cc1cc2cc(n1)-c1cnn(C)c1OCCC[C@@H](C)CN1/C(=N/C2=O)Nc2ccc(C3CCN(CCc4cc(F)c([C@H]5CCC(=O)NC5=O)c(F)c4)CC3)cc21 [Example 330, (R)-3-(2,6-difluoro-4-(2-(4-((R,E)-1^1,2^6,7-trimethyl-3-oxo-5^2,5^3-dihydro-1^1H,5^1H-11-oxa-4-aza-5(2,1)-benzo[d]imidazola-2(2,4)-pyridina-1(4,5)-pyrazolacycloundecaphane-5^6-yl)piperidin-1-yl)ethyl)phenyl)piperidine-2,6-dione]	66.1
1.33	0.71	97.1	Cc1cc2cc(n1)-c1cnn(C)c1OCCC[C@@H](C)CN1/C(=N/C2=O)Nc2ccc(C3CCN(CC4CN(c5cc(F)c([C@H]6CCC(=O)NC6=O)c(F)c5)C4)CC3)cc21 [Example 331, (R)-3-(2,6-difluoro-4-(3-((4-((R,E)-1^1,2^6,7-trimethyl-3-oxo-5^2,53-dihydro-1^1H,5^1H-11-oxa-4-aza-5(2,1)-benzo[d]imidazola-2(2,4)-pyridina-1(4,5)-pyrazolacycloundecaphane-5-yl)piperidin-1-yl)methyl)azetidin-1-yl)phenyl)piperidine-2,6-dione]	73.69
1.31	0.995	91.2	Cc1cc2cc(n1)-c1cnn(C)c1OCCC[C@@H](C)CN1/C(=N/C2=O)Nc2ccc(C3CCN(C4CCN(c5cc(F)c([C@H]6CCC(=O)NC6=O)c(F)c5)CC4)CC3)cc21 [Example 332, (R)-3-(2,6-difluoro-4-(4-((R,E)-1^1,2^6,7-trimethyl-3-oxo-5^2,5^3-dihydro-1^1H,5^1H-11-oxa-4-aza-5(2,1)-benzo[d]imidazola-2(2,4)-pyridina-1(4,5)-pyrazolacycloundecaphane-5^6-yl)-[1,4′-bipiperidin]-1′-yl)phenyl)piperidine-2,6-dione]	86.39
0.684	0.687	86.1	Cc1cc2cc(n1)-c1cnn(C)c1OCCC[C@@H](C)CN1/C(=N/C2=O)Nc2ccc(N3CCC(C(=O)N4CCN(c5cc(F)c([C@H]6CCC(=O)NC6=O)c(F)c5)CC4)CC3)cc21 [Example 333, (R)-3-(2,6-difluoro-4-(4-(1-((R,E)-1^1,2^6,7-trimethyl-3-oxo-5^2,5^3-dihydro-1^1H,5^1H-11-oxa-4-aza-5(2,1)-benzo[d]imidazola-2(2,4)-pyridina-1(4,5)-pyrazolacycloundecaphane-5^6-yl)piperidine-4-carbonyl)piperazin-1-yl)phenyl)piperidine-2,6-dione]	75.17
0.789	0.657	79.4	Cc1cc2cc(n1)-c1cnn(C)c1OCCC[C@@H](C)CN1/C(=N/C2=O)Nc2ccc(N3CCC(C(=O)N(C)CCc4cc(F)c([C@H]5CCC(=O)NC5=O)c(F)c4)CC3)cc21 [Example 335, N-(4-((R)-2,6-dioxopiperidin-3-yl)-3,5-difluorophenethyl)-N-methyl-1-((R,E)-1^1,2^6,7-trimethyl-3-oxo-5^2,5^3-dihydro-1^1H,5^1H-11-oxa-4-aza-5(2,1)-benzo[d]imidazola-2(2,4)-pyridina-1(4,5)-pyrazolacycloundecaphane-5^6-yl)piperidine-4-carboxamide]	60.16
0.304	0.386	88.4	Cc1cc2cc(n1)-c1cnn(C)c1OCCC[C@@H](C)CN1/C(=N/C2=O)Nc2cc(C)c(C(=O)N(C)C3CCN(CCc4cc(F)c([C@H]5CCC(=O)NC5=O)c(F)c4)CC3)cc21 [Example 336, (R,E)-N-(1-(4-((R)-2,6-dioxopiperidin-3-yl)-3,5-difluorophenethyl)piperidin-4-yl)-N,1^1,2^6,5^5,7-penta methyl-3-oxo-5^2,5^3-dihydro-1^1H,5^1H-11-oxa-4-aza-5(2,1)-benzo[d]imidazola-2(2,4)-pyridina-1(4,5)-pyrazolacycloundecaphane-5^6-carboxamide]	72.28
0.608	0.535	92	Cc1cc2cc(n1)-c1cnn(C)c1OCCC[C@@H](C)CN1/C(=N/C2=O)Nc2ccc(C(=O)N[C@H]3CCN(CCc4cc(F)c([C@H]5CCC(=O)NC5=O)c(F)c4)CC3(F)F)cc21 [Example 337, (R,E)-N—((S)-1-(4-((R)-2,6-dioxopiperidin-3-yl)-3,5-difluorophenethyl)-3,3-difluoropiperidin-4-yl)-1^12^6,7-trimethyl-3-oxo-5^2,5^3-dihydro-1^1H,5^1H-11-oxa-4-aza-5(2,1)-benzo[d]imidazola-2(2,4)-pyridina-1(4,5)-pyrazolacycloundecaphane-5^6-carboxamide]	79.69
